Source: patent US12447163B2, “Liposomal formulations of Bcl inhibitors” (Jazz Pharmaceuticals Therapeutics, Inc., priority 2021, dated 2025)

Tested on: platelet count
Test: Platelet count (thrombocytopenia / platelet protection) after administration of liposomal formulations or free drug
Format: in vivo, Female B6D2F1/J mice
Details: liposomal formulations at various doses or free drug, FIG. 7F
Procedure: Female B6D2F1/J mice were purchased from Jackson Laboratory and acclimated 7 days prior to study start. Mice were caged in autoclaved Allentown ventilated caging at a capacity of 3 animals/cage during the course of the experiment. Cages were changed bi-weekly. Environmental enrichment that was supplied for cages were Nestlets from Ancare, transparent tinted polycarbonate Mouse Igloos from Bio-Serv on Envigo 7097¼″ corn cob bedding. All enrichment was added to the cage prior to the cages being autoclaved. Mice were fed Envigo Teklad Global Rodent Diet 2018. The rodent food was kept in the hoppers of the wire lids and was changed bi-weekly. Reverse osmosis water was supplied through Avidity Science automatic watering valves at a flow rate of 25-50 ml/min. Environmental control of the lights and monitoring of temperature, humidity and airflow was done by WatchDog. Light cycles in the animal holding rooms was set for 12 hours on and 12 hours off. Temperature, humidity and airflow were maintained and controlled by BCCRC facilities.
Mice were injected with the required volume to administer the prescribed dose (10 mg/kg) to the animals based on individual mouse weights using a 28 G needle. The injection volume was 200 μL/20 g mouse. The mice were briefly (less than 30 sec.) restrained during i.v. injections. […]

## CN(C)CC[C@H](CSc1ccccc1)Nc1ccc(S(=O)(=O)NC(=O)c2ccc(N3CCN(Cc4ccccc4-c4ccc(Cl)cc4)CC3)cc2)cc1[N+](=O)[O-] [Compound 7]
  tolerability (platelet count): well tolerated at the tested doses
